According to the NIST ThermoML archive (doi:10.1016/j.jct.2012.07.008):
± gives the expanded uncertainty stated by the source.

Assay: molar enthalpy of vaporization or sublimation
Details: 298.15 K; Liquid; drop calorimetry

molar enthalpy: 16.6 ± 1.05 kcal/mol
Structure (SMILES): O=C1CCCc2occc21 [6,7-dihydrobenzofuran-4(5H)-one]
